Measurements reported in PubChem BioAssay AID248 (DTP/NCI, 2004).
Values joined by “and” are separate entries in the source; they are usually repeats but may differ in a detail not shown here. Equal values may be shown once. Toxic doses and inconclusive results are not listed.

Test system: L1210 leukemia ip in BDF1 mice, survival T/C
Experiment: NCI In Vivo Anticancer Drug Screen. Data for tumor model L1210 Leukemia (intraperitoneal) in B6D2F1 (BDF1) mice
Settings: endpoint: mean survival time, higher = longer survival
In short: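 Ratio derived from survival: compound-dosed mice over vehicle-dosed mice, all bearing a transplantable tumor.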

[1] = dose: 200.0 mg/kg/injection, schedule: Q04DX002 (ip), vehicle: saline with Tween-80
[2] = dose: 100.0 mg/kg/injection, schedule: Q01DX001 (ip), vehicle: saline
[3] = dose: 200.0 mg/kg/injection, schedule: Q01DX001 (ip), vehicle: saline
[4] = dose: 100.0 mg/kg/injection, schedule: Q04DX002 (ip), vehicle: saline with Tween-80
[5] = dose: 400.0 mg/kg/injection, schedule: Q04DX002 (ip), vehicle: saline with Tween-80
[6] = dose: 100.0 mg/kg/injection, schedule: Q04DX003 (ip), vehicle: Klucel (hydroxypropylcellulose) (HPC)
[7] = dose: 200.0 mg/kg/injection, schedule: Q04DX003 (ip), vehicle: Klucel (hydroxypropylcellulose) (HPC)
[8] = dose: 400.0 mg/kg/injection, schedule: Q04DX003 (ip), vehicle: Klucel (hydroxypropylcellulose) (HPC)
[9] = dose: 50.0 mg/kg/injection, schedule: Q01DX001 (ip), vehicle: carboxymethylcellulose (CMC)
[10] = dose: 100.0 mg/kg/injection, schedule: Q01DX001 (ip), vehicle: carboxymethylcellulose (CMC)
[11] = dose: 200.0 mg/kg/injection, schedule: Q01DX001 (ip), vehicle: carboxymethylcellulose (CMC)

Cc1ccc(C(C)(C)CP(c2ccccc2)c2ccccc2)cc1
T/C (dose: 25.0 mg/kg/injection, schedule: Q04DX002 (ip), vehicle: saline with Tween-80): 95 % of control
T/C (dose: 50.0 mg/kg/injection, schedule: Q04DX002 (ip), vehicle: saline with Tween-80): 92 % of control
T/C [1]: 89 % of control

C(CC1CO1)C1CO1 (configuration not stated)
T/C (dose: 7.0 mg/kg/injection, schedule: Q01DX009 (ip), vehicle: acetone): 197 % of control
T/C (dose: 9.0 mg/kg/injection, schedule: Q01DX Z (ip), vehicle: methylcellulose (MC)): 118 % of control
T/C (dose: 9.2 mg/kg/injection, schedule: Q01DX009 (ip), vehicle: saline): 102 % of control and 115 % of control
T/C (dose: 10.6 mg/kg/injection, schedule: Q01DX001 (ip), vehicle: acetone): 102 % of control
T/C (dose: 10.6 mg/kg/injection, schedule: Q01DX009 (ip), vehicle: acetone): 115 % of control
T/C (dose: 10.6 mg/kg/injection, schedule: Q04DX003 (ip), vehicle: acetone): 112 % of control
T/C (dose: 10.6 mg/kg/injection, schedule: Q08DX002 (ip), vehicle: acetone): 102 % of control
T/C (dose: 14.0 mg/kg/injection, schedule: Q01DX009 (ip), vehicle: acetone): 152 % of control
T/C (dose: 14.0 mg/kg/injection, schedule: Q01DX009 (ip), vehicle: saline): 102 % of control and 105 % of control
T/C (dose: 16.0 mg/kg/injection, schedule: Q01DX009 (ip), vehicle: acetone): 115 % of control
T/C (dose: 16.0 mg/kg/injection, schedule: Q04DX003 (ip), vehicle: acetone): 115 % of control
T/C (dose: 16.0 mg/kg/injection, schedule: Q08DX002 (ip), vehicle: acetone): 112 % of control
T/C (dose: 18.0 mg/kg/injection, schedule: Q01DX Z (ip), vehicle: methylcellulose (MC)): 122 % of control and 124 % of control
T/C (dose: 18.8 mg/kg/injection, schedule: Q01DX009 (ip), vehicle: saline): 107 % of control
T/C (dose: 21.0 mg/kg/injection, schedule: Q01DX009 (ip), vehicle: saline): 109 % of control and 116 % of control
T/C (dose: 22.0 mg/kg/injection, schedule: Q01DX001 (ip), vehicle: saline): 109 % of control
T/C (dose: 24.0 mg/kg/injection, schedule: Q01DX001 (ip), vehicle: acetone): 103 % of control
T/C (dose: 24.0 mg/kg/injection, schedule: Q04DX003 (ip), vehicle: acetone): 124 % of control
T/C (dose: 24.0 mg/kg/injection, schedule: Q08DX002 (ip), vehicle: acetone): 105 % of control
T/C (dose: 27.0 mg/kg/injection, schedule: Q01DX Z (ip), vehicle: methylcellulose (MC)): 110 % of control and 116 % of control
T/C (dose: 33.0 mg/kg/injection, schedule: Q01DX001 (ip), vehicle: saline): 107 % of control
T/C (dose: 36.0 mg/kg/injection, schedule: Q01DX001 (ip), vehicle: acetone): 110 % of control
T/C (dose: 36.0 mg/kg/injection, schedule: Q04DX003 (ip), vehicle: acetone): 124 % of control
T/C (dose: 36.0 mg/kg/injection, schedule: Q08DX002 (ip), vehicle: acetone): 117 % of control
T/C (dose: 37.5 mg/kg/injection, schedule: Q01DX009 (ip), vehicle: saline): 150 % of control
T/C (dose: 37.5 mg/kg/injection, schedule: Q04DX003 (ip), vehicle: saline sonified): 113 % of control
T/C (dose: 40.0 mg/kg/injection, schedule: Q01DX Z (ip), vehicle: methylcellulose (MC)): 108 % of control and 116 % of control
T/C (dose: 50.0 mg/kg/injection, schedule: Q01DX001 (ip), vehicle: saline): 117 % of control
T/C (dose: 54.0 mg/kg/injection, schedule: Q01DX001 (ip), vehicle: acetone): 121 % of control
T/C (dose: 54.0 mg/kg/injection, schedule: Q08DX002 (ip), vehicle: acetone): 113 % of control
T/C (dose: 60.0 mg/kg/injection, schedule: Q01DX Z (ip), vehicle: methylcellulose (MC)): 86 % of control
T/C (dose: 66.0 mg/kg/injection, schedule: Q01DX009 (ip), vehicle: acetone): 168 % of control
T/C (dose: 66.0 mg/kg/injection, schedule: Q04DX003 (ip), vehicle: saline): 117 % of control
T/C (dose: 75.0 mg/kg/injection, schedule: Q01DX009 (ip), vehicle: saline): 175 % of control
T/C (dose: 75.0 mg/kg/injection, schedule: Q04DX003 (ip), vehicle: saline sonified): 119 % of control
T/C (dose: 81.0 mg/kg/injection, schedule: Q01DX001 (ip), vehicle: acetone): 118 % of control
T/C (dose: 81.0 mg/kg/injection, schedule: Q04DX003 (ip), vehicle: acetone): 154 % of control
T/C (dose: 81.0 mg/kg/injection, schedule: Q08DX002 (ip), vehicle: acetone): 123 % of control
T/C [2]: 118 % of control
T/C (dose: 100.0 mg/kg/injection, schedule: Q01DX009 (ip), vehicle: acetone): 224 % of control
T/C (dose: 100.0 mg/kg/injection, schedule: Q04DX003 (ip), vehicle: acetone): 161 % of control
T/C (dose: 150.0 mg/kg/injection, schedule: Q04DX003 (ip), vehicle: saline): 101 % of control
T/C [3]: 121 % of control

CN(C)CCNC(=O)CN
T/C [2]: 102 % of control
T/C [3]: 107 % of control
T/C (dose: 400.0 mg/kg/injection, schedule: Q01DX001 (ip), vehicle: saline): 107 % of control

CC(C)N(C(=O)Nc1cccc(F)c1)C1CCCCC1
T/C (dose: 50.0 mg/kg/injection, schedule: Q01DX009 (ip), vehicle: gum acacia): 105 % of control
T/C (dose: 100.0 mg/kg/injection, schedule: Q01DX009 (ip), vehicle: gum acacia): 100 % of control and 88 % of control
T/C (dose: 200.0 mg/kg/injection, schedule: Q01DX009 (ip), vehicle: gum acacia): 94 % of control
T/C (dose: 400.0 mg/kg/injection, schedule: Q01DX009 (ip), vehicle: gum acacia): 90 % of control

O=C1NC2(CCCCCC2)C(=O)N1CN1CCOCC1
T/C (dose: 100.0 mg/kg/injection, schedule: Q01DX001 (ip), vehicle: Klucel (hydroxypropylcellulose) (HPC)): 98 % of control
T/C (dose: 200.0 mg/kg/injection, schedule: Q01DX001 (ip), vehicle: Klucel (hydroxypropylcellulose) (HPC)): 101 % of control
T/C (dose: 400.0 mg/kg/injection, schedule: Q01DX001 (ip), vehicle: Klucel (hydroxypropylcellulose) (HPC)): 104 % of control

CC(=O)c1cc(C)c(O)cc1C
T/C [4]: 103 % of control
T/C [1]: 92 % of control
T/C [5]: 111 % of control

CC(=O)OC1CCC2(C)C(CCC3C4CCC(C(C)OC(C)=O)C4NC(=O)CC32)C1 (configuration not stated)
T/C (dose: 75.0 mg/kg/injection, schedule: Q01DX001 (ip), vehicle: other): 104 % of control
T/C (dose: 150.0 mg/kg/injection, schedule: Q01DX001 (ip), vehicle: other): 101 % of control
T/C (dose: 300.0 mg/kg/injection, schedule: Q01DX001 (ip), vehicle: other): 93 % of control

Cc1cc(C)c(C(=O)O)cc1C
T/C (dose: 75.0 mg/kg/injection, schedule: Q01DX001 (ip), vehicle: saline): 102 % of control
T/C (dose: 150.0 mg/kg/injection, schedule: Q01DX001 (ip), vehicle: saline): 94 % of control
T/C (dose: 300.0 mg/kg/injection, schedule: Q01DX001 (ip), vehicle: saline): 102 % of control

CC12C(=O)C(C)(C(c3ccccc3)=C1c1ccccc1)C1C=CN(S(C)(=O)=O)C=CC12 (configuration not stated)
T/C [4]: 86 % of control
T/C [1]: 88 % of control
T/C [5]: 86 % of control

CC1(C)N=C(N)N=C(N)N1c1cccc(CCCCc2cccc(N)c2)c1
T/C (dose: 5.0 mg/kg/injection, schedule: Q01DX001 (ip), vehicle: saline): 98 % of control
T/C (dose: 10.0 mg/kg/injection, schedule: Q01DX001 (ip), vehicle: saline): 102 % of control
T/C (dose: 20.0 mg/kg/injection, schedule: Q01DX001 (ip), vehicle: saline): 113 % of control

Cc1cc(S(=O)(=O)F)ccc1NC(=O)NCc1ccc(N2C(N)=NC(N)=NC2(C)C)cc1
T/C [6]: 108 % of control
T/C [7]: 100 % of control
T/C [8]: 106 % of control

CCNP(=O)(OCC)OCC
T/C [9]: 94 % of control
T/C [10]: 92 % of control
T/C [11]: 94 % of control
T/C (dose: 400.0 mg/kg/injection, schedule: Q01DX001 (ip), vehicle: carboxymethylcellulose (CMC)): 118 % of control

OC(c1cc(-c2cccc(Cl)c2)nc2ccccc12)C1CCCCN1 (configuration not stated)
T/C [9]: 92 % of control
T/C [10]: 90 % of control
T/C [11]: 95 % of control

COC(=O)Nc1ccc(C)c(NC(=O)OC)c1
T/C [6]: 104 % of control
T/C [7]: 93 % of control
T/C [8]: 107 % of control

CN(C)CCOC(=O)c1ccccc1CCl
T/C (dose: 10.0 mg/kg/injection, schedule: Q01DX009 (ip), vehicle: saline): 101 % of control
T/C (dose: 20.0 mg/kg/injection, schedule: Q01DX009 (ip), vehicle: saline): 98 % of control
T/C (dose: 40.0 mg/kg/injection, schedule: Q01DX009 (ip), vehicle: saline): 98 % of control
